According to patent US20240082162A1, “PHARMACEUTICAL FORMULATIONS OF PILOCARPINE R-(+)-LIPOATE” (Cellix Bio Private Limited, priority 2020, published 2024):
Several values for one entry are separate records, joined by “and”; a condition that tells them apart may be missing. Identical values can stand only once. Counter-ions that a name gives are not always drawn.

System: A-253 human salivary gland cell line
Assay: iROS assay (DCFH-DA), H2O2-induced oxidative stress in A-253 cells
Format: cell-based
Conditions: for iROS assay - normalised data vs H2O2 (single values) / iROS assay - normalised data vs H2O2, Average / iROS assay - normalized data (single values) / iROS assay - normalized data, Average: H2O2(1 mM), 24 hours; for iROS assay - normalised data vs H2O2 (single values) / iROS assay - normalised data vs H2O2, Average: H2O2 alone = 1; for iROS assay - normalized data (single values) / iROS assay - normalized data, Average: unstimulated cells = 1; for Effect on iROS induced by H2O2 (in words): A-253 cells, 3-1000 μM
Description: Objective: The objective of this study was to investigate the effect of the test compound (CLX 156), on H2O2-induced oxidative stress in human submaxillary gland (HSG) cell line; A-253 cell line, in comparison with pilocarpine hydrochloride. Method: A-253 human salivary gland cell line was cultured in McCoy's 5a Medium Modified (ATCC) with 10% HI-FBS according to manufacturer's guidelines at 37° C. in the presence of 5% CO 2 in a humified incubator. The cells were sub-cultured using Trypsin-EDTA and 10,000 cells seeded into each 48 well cell culture plates with a media volume of 500 μl. The cells were allowed to grow for 48 hours. After 48 hours of culture, the cells were pre-incubated for 1 hour with the positive, reference and test compounds at the desired concentrations (see table 1) followed by the addition of 1 mM H2O2 to the culture media (without the removal of test compounds) to induce oxidative stress. The incubation was continued for 24 hours. After 24 hours of treatment with H2O2, the cells were used to assess iROS as described below. This is a cell-based assay for measuring hydroxyl, peroxyl, or other reactive oxygen species activity within a cell. The assay employs the cell-permeable fluorogenic probe 2′, 7′-Dichlorodihydrofluorescin diacetate (DCFH-DA). In brief, DCFH-DA is diffused into cells and is deacetylated by cellular esterases to non-fluorescent 2′,7′-Dichlorodihydrofluorescin (DCFH), which is rapidly oxidized to highly fluorescent 2′,7′-Dichlorodihydrofluorescein (DCF) by ROS. The fluorescence intensity is proportional to the ROS levels within the cell cytosol. OxiSelect˜ Intracellular ROS Assay Kit was used according to the manufacturer's guidelines (Cell Biolabs). In short, at Day 3 the cells were washed several times with PBS and then treated with 1X DCFH-DA in media and incubated for 30-60 minutes. After DCFH-DA treatment, the oxidative stress was induced by adding 1 mM H2O2 and the fluorescence signals measured after 24 hours using a plate reader.

CC[C@@H]1C(=O)OC[C@@H]1Cc1cncn1C.O=C(O)CCCC[C@@H]1CCSS1 [CLX 156, Pilocarpine-R-(+)-lipoate]
iROS assay - normalised data vs H2O2 (single values) (3 μM): 0.8216 and 0.8019 and 0.7870 | iROS assay - normalised data vs H2O2, Average (3 μM): 0.8035 | iROS assay - normalized data (single values) (3 μM): 6.2116 and 6.0622 and 5.9502 | iROS assay - normalized data, Average (3 μM): 6.0747 | iROS assay - normalised data vs H2O2 (single values) (10 μM): 0.7047 and 0.6981 and 0.7591 | iROS assay - normalised data vs H2O2, Average (10 μM): 0.7206 | iROS assay - normalized data (single values) (10 μM): 5.3278 and 5.2780 and 5.7386 | iROS assay - normalized data, Average (10 μM): 5.4481 | iROS assay - normalised data vs H2O2 (single values) (30 μM): 0.7294 and 0.7558 and 0.7755 | iROS assay - normalised data vs H2O2, Average (30 μM): 0.7536 | iROS assay - normalized data (single values) (30 μM): 5.5145 and 5.7137 and 5.8631 | iROS assay - normalized data, Average (30 μM): 5.6971 | iROS assay - normalised data vs H2O2 (single values) (100 μM): 0.7887 and 0.7377 and 0.7360 | iROS assay - normalised data vs H2O2, Average (100 μM): 0.7541 | iROS assay - normalized data (single values) (100 μM): 5.9627 and 5.5768 and 5.5643 | iROS assay - normalized data, Average (100 μM): 5.7012 | iROS assay - normalised data vs H2O2 (single values) (300 μM): 0.6224 and 0.6965 and 0.6553 | iROS assay - normalised data vs H2O2, Average (300 μM): 0.6581 | iROS assay - normalized data (single values) (300 μM): 4.7054 and 5.2656 and 4.9544 | iROS assay - normalized data, Average (300 μM): 4.9751 | iROS assay - normalised data vs H2O2 (single values) (1000 μM): 0.4676 and 0.4396 and 0.4841 | iROS assay - normalised data vs H2O2, Average (1000 μM): 0.4638 | iROS assay - normalized data (single values) (1000 μM): 3.5353 and 3.3237 and 3.6598 | iROS assay - normalized data, Average (1000 μM): 3.5062 | Effect on iROS induced by H2O2 (in words): significantly inhibited the iROS induced by H2O2 in A-253 cells in a concentration dependent manner | Inhibition of iROS compared with Pilocarpine HCL (in words) (A-253 salivary gland cell culture model): superior to Pilocarpine HCL in inhibiting the iROS induced by H2O2 | IC50 (H2O2-induced iROS in A-253 cells, read-out: IC50 for Intracellular ROS (iROS) inhibition): 552 µM

CC[C@@H]1C(=O)OC[C@@H]1Cc1cncn1C [Pilocarpine HCl, pilocarpine hydrochloride, reference compound]
iROS assay - normalised data vs H2O2, Average (3 μM): 1.0401 | iROS assay - normalised data vs H2O2 (single values) (3 μM, hydrochloride): 0.9995 and 1.0274 and 1.0933 | iROS assay - normalized data, Average (3 μM): 7.8631 | iROS assay - normalized data (single values) (3 μM, hydrochloride): 7.5560 and 7.7676 and 8.2656 | iROS assay - normalised data vs H2O2, Average (10 μM): 0.9018 | iROS assay - normalised data vs H2O2 (single values) (10 μM, hydrochloride): 0.8825 and 0.8760 and 0.9468 | iROS assay - normalized data, Average (10 μM): 6.8174 | iROS assay - normalized data (single values) (10 μM, hydrochloride): 6.6722 and 6.6224 and 7.1577 | iROS assay - normalised data vs H2O2, Average (30 μM): 0.8952 | iROS assay - normalised data vs H2O2 (single values) (30 μM, hydrochloride): 0.8941 and 0.8332 and 0.9583 | iROS assay - normalized data, Average (30 μM): 6.7676 | iROS assay - normalized data (single values) (30 μM, hydrochloride): 6.7593 and 6.2988 and 7.2448 | iROS assay - normalised data vs H2O2, Average (100 μM): 0.9226 | iROS assay - normalised data vs H2O2 (single values) (100 μM, hydrochloride): 0.9550 and 0.9336 and 0.8793 | iROS assay - normalized data, Average (100 μM): 6.9751 | iROS assay - normalized data (single values) (100 μM, hydrochloride): 7.2199 and 7.0581 and 6.6473 | iROS assay - normalised data vs H2O2, Average (300 μM): 0.9265 | iROS assay - normalised data vs H2O2 (single values) (300 μM, hydrochloride): 0.9040 and 0.8858 and 0.9896 | iROS assay - normalized data, Average (300 μM): 7.0041 | iROS assay - normalized data (single values) (300 μM, hydrochloride): 6.8340 and 6.6971 and 7.4813 | iROS assay - normalised data vs H2O2, Average (1000 μM): 0.9040 | iROS assay - normalised data vs H2O2 (single values) (1000 μM, hydrochloride): 0.8924 and 0.8842 and 0.9352 | iROS assay - normalized data, Average (1000 μM): 6.8340 | iROS assay - normalized data (single values) (1000 μM, hydrochloride): 6.7469 and 6.6846 and 7.0705 | Effect on iROS induced by H2O2 (in words): comparatively less in magnitude and showed no clear dose response
